What was measured:
[1] = test system: AML MV-4-11 cells; experiment: Hollow fiber in vivo mouse model; conditions: AML MV-4-11 cells in hollow fibers in mice; end of the experiment; by number
Procedure: Data is shown as mean±SEM (n=7-8).
Furthermore, in vivo experiments using the hollow fiber mouse model with 2-(hydroxymethyl)-2-(methoxymethyl)quinuclidin-3-one indicate that inventive compounds have a significant anti-leukemic effect. These experiments were performed using the hollow fiber in vivo mouse model (for a short description of the model, cf. the internet website http://dtp.nci.nih.gov/timeline/noflash/milestones/M13_hollow_fiber.htm).

[2] = Stability studies of APR-246 in an aqueous system at different pH; type: physicochemical
Procedure: Several aqueous formulations of APR-246 and of the hydrochloric acid addition salt of APR-246 were prepared and tested for stability.
The stability increases with decreased pH. To establish a suitable pH for APR-246 with respect to stability, studies with the drug substance in different solutions at different pH were performed.
(§1) HPLC—Chromatography was performed on an Agilent 1100/1200 series HPLC system using a Purospher Star RP-18e, 5 μm (250×4.6) mm Column at 20° C. Sample temperature was set to 5° C. by a thermostat. Detection was accomplished by means of a UV/VIS DAD detector at 210 nm. The flow rate was set to 1.0 mL/min and the injection volume was 10 μL. The mobile phase used was a gradient of phosphate buffer (A) in acetonitrile (B): 0-5 min: 90% A, 5-20 min: 70% A, 20-35 min: 20% A, 35-45 min: 90% A. The calibration was obtained using pure APR-246 standard solutions freshly prepared prior to analyses. Data acquisition was performed electronically. The method has been validated.

[3] = Long term stability studies of APR-246 in aqueous system; type: physicochemical
Procedure: as §1, with “APR-246 stock solutions were manufactured at a concentration of about 150 mg/mL at pH 3.9. The finished product consisted of 21.5-22.0 mL of drug product aseptically filled into presterilized 50 mL glass vials. The manufacturing was in compliance with Good Manufacturing Practices regulations. […] HPLC—Chromatography” for “HPLC—Chromatography”

[4] = HPLC-UV before and after autoclaving of APR-246 solution; type: physicochemical; conditions: autoclaving at 121° C.
Procedure: as §1, with “validated. The APR-246 drug product was a sterile concentrate for solution for infusion. The solution was sterilised by filtration according to Ph Eur standard method and aseptically filled in vials.” for “validated.”

[5] = test system: H1299-His175; experiment: Effect of APR-246 on cell viability in cancer cell lines; type: cell-based; conditions: Non-small cell lung carcinoma H1299-His175, mean±SD
Procedure: (§2) The therapeutic activity of the compound 2-(hydroxymethyl)-2-(methoxymethyl)-quinuclidin-3-one (herein also referred to as APR-246) in the treatment of various cancers has been shown by in vitro assays using various cancer cell lines, cf. Table 2, wherein the IC50 of APR-246 in various types of cancerous cells is shown.
(§3) In Table 2, the results are shown as mean±SD; the IC50 values are calculated as the average of the IC50 values in the individual experiments.

[6] = test system: BT-474; experiment: as above; type: cell-based; conditions: Homo sapiens, Breast ductal carcinoma BT-474, mean±SD
Procedure: as §2, §3

[7] = test system: MDA-MB-231; experiment: as above; type: cell-based; conditions: Homo sapiens, Breast adenocarcinoma MDA-MB-231, mean±SD
Procedure: as §2, §3

[8] = test system: KBM3; experiment: as above; type: cell-based; conditions: Acute Myelomonocytic Leukaemia KBM3, mean±SD
Procedure: as §2, §3

[9] = test system: MCF-7; experiment: as above; type: cell-based; conditions: Homo sapiens, MCF7, Breast adenocarcinoma MCF-7, mean±SD
Procedure: as §2, §3

[10] = test system: HT-29; experiment: as above; type: cell-based; conditions: Homo sapiens, Colorectal adenocarcinoma HT-29, mean±SD
Procedure: as §2, §3

[11] = test system: U-2OS; experiment: as above; type: cell-based; conditions: Homo sapiens, U2OS, Osteosarcoma U-2OS, mean±SD
Procedure: as §2, §3

[12] = test system: PC3-puro; experiment: as above; type: cell-based; conditions: Prostate adenocarcinoma PC3-puro, mean±SD
Procedure: as §2, §3

[13] = test system: H1299; experiment: as above; type: cell-based; conditions: Homo sapiens, NCI-H1299, Non-small cell lung carcinoma H1299, mean±SD
Procedure: as §2, §3

[14] = test system: 22Rv1; experiment: as above; type: cell-based; conditions: Homo sapiens, Prostate carcinoma 22Rv1, mean±SD
Procedure: as §2, §3

[15] = test system: PC3-175; experiment: as above; type: cell-based; conditions: Prostate adenocarcinoma PC3-175, mean±SD
Procedure: as §2, §3

[16] = test system: SaOS-2-His273; experiment: as above; type: cell-based; conditions: Osteosarcoma SaOS-2-His273, mean±SD
Procedure: as §2, §3

[17] = test system: SaOS-2; experiment: as above; type: cell-based; conditions: Homo sapiens, Osteosarcoma SaOS-2, mean±SD
Procedure: as §2, §3

[18] = Solubility and pH of APR-246 in water solutions; type: physicochemical
[19] = Infusion bag compatibility study; type: physicochemical
Procedure: as §1, with “validated. This example summarizes the results of a compatibility study of the APR-246 drug product (150 mg/mL stock solution) in six infusion bags, to confirm physical and chemical stability of the drug product in the NaCl solution and compatibility with infusion bags and tubing device material. The drug product should be diluted with sterile 0.9% NaCl solution for infusion to a total volume of 500 ml before administration. The duration of the study covers a period beyond finalisation of infusion to the patient. The study was designed for a worst case lowest dose of 0.15 mg/mL and for a worst case highest dose of 24 mg/mL. […]” for “validated.”

COCC1(CO)C(=O)C2CCN1CC2 (stereo not shown) [APR-246, 2-(hydroxymethyl)-2-(methoxymethyl)quinuclidin-3-one]
net growth of leukemic cells [1]: about −25% | stability of formulations with pH above 6 ([2]; pH above 6, model systems of Table 3): stability problems | degradation in aqueous solutions ([2]; room temperature and lower temperatures, regardless of the concentration profile): suffered from degradation | long term stability in the inventive formulation ([3]; formulated for clinical use, about 150 mg/mL, pH 3.9): stable | expected degradation on storage ([3]; over a period of two years, stored at 2-8° C.): no significant degradation | degradation on autoclaving the solution in the final container [4]: degradation was too pronounced | IC50 [5]: 14 ± 8 µM | IC50 [6]: 3 ± 2 µM | IC50 [7]: 18 ± 5 µM | IC50 [8]: 7 ± 1 µM | IC50 [9]: 15 ± 1 µM | IC50 [10]: 25 ± 5 µM | IC50 [11]: 15 ± 4 µM | IC50 [12]: 27 ± 3 µM | IC50 [13]: 16 ± 7 µM | IC50 [14]: 10 ± 0.6 µM | IC50 [15]: 23 ± 7 µM | IC50 [16]: 14 ± 3 µM | IC50 [17]: 27 ± 5 µM | solubility in water solutions [18]: readily soluble | stability in infusion bag over the range of the study ([19]; high concentration): satisfactory stability | stability in infusion bag over the range of the study ([19]; low concentration): satisfactory stability
